Test results reported in the supplement of paper PMC10307832.

Experiments:
Assay in all cases: relative viability (nuclei count vs DMSO), 5 days (fraction); higher = more cells survive
AZ628 + Pictilisib = compound: CC1=C(C=C(C=C1)NC(=O)C2=CC(=CC=C2)C(C)(C)C#N)NC3=CC4=C(C=C3)N=CN(C4=O)C [AZ628] + CS(=O)(=O)N1CCN(Cc2cc3nc(-c4cccc5[nH]ncc45)nc(N4CCOCC4)c3s2)CC1 [Pictilisib] (partner 1 µM)
How it was run: (§1)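 A single step with final 0.05% Triton X-100, 1% formaldehyde and 1 ug/ml Hoechst fixed the cells and stained nuclei 5 days after treatment. Lung cancer cell lines in 1536-well plates had been treated by pin tool the day after seeding with one drug alone or a fixed anchor-drug dose plus five library-drug doses (not always all listed) in √10 steps, and nuclei were counted on 4× images. Relative viability is the ratio of nuclei in treated wells to nuclei in vehicle wells, taken as the median of duplicate plates.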

QS11 + Navitoclax = compound: C1CC2=C(C1)C=C(C=C2)OC3=NC(=C4C(=N3)N(C=N4)CC5=CC=C(C=C5)C6=CC=CC=C6)N[C@@H](CC7=CC=CC=C7)CO [QS11] + CC1(C)CCC(c2ccc(Cl)cc2)=C(CN2CCN(c3ccc(C(=O)NS(=O)(=O)c4ccc(N[C@H](CCN5CCOCC5)CSc5ccccc5)c(S(=O)(=O)C(F)(F)F)c4)cc3)CC2)C1 [Navitoclax] (partner 0.5 µM)
How it was run: as §1

AZ628 + Luminespib = compound: CC1=C(C=C(C=C1)NC(=O)C2=CC(=CC=C2)C(C)(C)C#N)NC3=CC4=C(C=C3)N=CN(C4=O)C [AZ628] + CCNC(=O)c1noc(-c2cc(C(C)C)c(O)cc2O)c1-c1ccc(CN2CCOCC2)cc1 [Luminespib] (partner 0.01 µM)
How it was run: as §1

Row | Cell Line | relative viability (AZ628 + Pictilisib; first compound 0.08 µM) | relative viability (AZ628 + Pictilisib; first compound 0.253 µM) | relative viability (AZ628 + Pictilisib; first compound 0.8 µM) | relative viability (AZ628 + Pictilisib; first compound 2.53 µM) | relative viability (AZ628 + Pictilisib; first compound 8 µM) | relative viability (QS11 + Navitoclax; first compound 0.08 µM) | relative viability (QS11 + Navitoclax; first compound 0.253 µM) | relative viability (QS11 + Navitoclax; first compound 0.8 µM) | relative viability (QS11 + Navitoclax; first compound 2.53 µM) | relative viability (QS11 + Navitoclax; first compound 8 µM) | relative viability (AZ628 + Luminespib; first compound 0.08 µM) | relative viability (AZ628 + Luminespib; first compound 0.253 µM) | relative viability (AZ628 + Luminespib; first compound 0.8 µM) | relative viability (AZ628 + Luminespib; first compound 2.53 µM) | relative viability (AZ628 + Luminespib; first compound 8 µM)
1 | HCC-827 | 0.98 | 0.994 | 0.988 | 0.984 | 0.826 | 0.987 | 1.01 | 0.833 | 0.944 | 0.899 | 0.698 | 0.5 | 0.588 | 0.701 | 0.623
2 | 201T | 0.688 | 0.659 | 0.691 | 0.71 | 0.723 | 1.19 | 1.22 | 0.994 | 1.24 | 1.17 | 1.07 | 1.02 | 1.14 | 1.05 | 1.14
3 | HCC-44 | 0.547 | 0.512 | 0.427 | 0.354 | 0.286 | 0.943 | 0.93 | 0.666 | 0.792 | 0.718 | 1.29 | 1.08 | 1.13 | 0.945 | 0.767
4 | NCI-H650 | 1.07 | 1 | 1.06 | 1.12 | 0.732 |  |  |  |  |  | 0.935 | 0.816 | 0.909 | 0.843 | 0.63
5 | PC-3 [JPC-3] | 0.767 | 0.835 | 0.861 | 0.814 | 0.525 | 0.738 | 0.884 | 0.771 | 0.84 | 0.938 | 0.628 | 0.67 | 0.866 | 0.675 | 0.71
6 | NCI-H1395 | 0.645 | 0.621 | 0.618 | 0.629 | 0.662 |  | 1.09 | 1.31 | 1.45 | 1.02 | 0.701 | 0.763 | 0.688 | 0.808 | 0.686
7 | CAL-12T | 0.393 |  | 0.416 | 0.298 | 0.505 | 1.18 | 1.39 | 1.15 | 1.08 | 1.14 | 0.591 | 0.371 | 0.376 | 0.465 | 0.466
8 | NCI-H1944 | 0.359 | 0.321 | 0.322 | 0.29 | 0.321 | 1.06 | 1.1 |  | 1.07 | 0.973 | 0.651 | 0.66 | 0.553 | 0.546 | 0.575
9 | NCI-H322M | 0.554 | 0.473 | 0.482 | 0.469 | 0.412 | 1.21 | 1.21 | 1.22 | 1.35 | 1.26 | 0.924 | 0.815 | 0.935 | 0.79 | 0.549
10 | LCLC-103H | 0.554 | 0.587 | 0.632 | 0.55 | 0.583 |  |  |  |  |  | 0.971 | 0.879 | 0.974 | 0.94 | 0.965
11 | SK-MES-1 | 0.337 | 0.372 | 0.28 | 0.327 | 0.329 | 1.43 | 1.25 | 1.21 | 1.45 | 1.37 | 0.848 | 0.72 | 0.574 | 0.598 | 0.386
12 | Calu-6 | 0.896 | 0.64 | 0.409 | 0.553 | 0.144 | 1.08 | 0.844 | 0.872 | 1.01 | 0.901 |  |  |  |  | 
13 | A-427 | 0.43 | 0.364 | 0.333 | 0.177 | 0.132 | 0.992 | 1.02 |  | 1.02 | 1.01 | 1.08 | 0.805 | 0.76 | 0.775 | 0.555
14 | NCI-H1563 | 0.613 | 0.667 | 0.657 | 0.658 | 0.616 |  |  |  |  |  | 0.531 | 0.524 | 0.519 | 0.56 | 0.515
15 | NCI-H1355 | 0.454 | 0.395 | 0.404 | 0.34 | 0.285 | 0.876 | 0.869 | 0.791 | 1.03 | 0.881 | 0.756 | 0.716 | 0.705 | 0.667 | 0.646
16 | NCI-H2170 | 0.386 | 0.305 | 0.354 | 0.337 | 0.275 | 0.575 | 0.584 | 0.572 | 0.605 | 0.695 | 0.802 | 0.725 | 0.789 | 0.752 | 0.731
17 | NCI-H1793 | 0.345 | 0.202 | 0.32 | 0.275 | 0.196 | 0.393 | 0.482 | 0.38 | 0.436 | 0.404 | 0.182 | 0.19 | 0.202 | 0.132 | 0.173
18 | NCI-H2023 | 0.218 | 0.23 | 0.236 | 0.196 | 0.202 | 1.02 | 1.02 | 0.925 | 1.16 | 1.12 | 0.818 | 0.76 | 0.666 | 0.65 | 0.653
19 | NCI-H2342 |  |  |  |  |  |  |  |  |  |  | 0.763 | 0.865 | 0.736 | 0.821 | 0.825
20 | NCI-H522 |  |  |  |  |  |  |  |  |  |  | 1.33 | 1.15 | 1.16 | 1.29 | 0.821
21 | A549 | 0.473 | 0.378 | 0.311 | 0.406 | 0.138 | 1.2 | 1.37 | 1.21 | 1.06 | 0.808 |  |  |  |  | 
22 | NCI-H1703 | 0.231 | 0.235 | 0.235 | 0.197 | 0.251 | 1.41 | 1.11 | 1.18 | 1.3 | 1.35 |  |  |  |  | 
23 | HCC-366 | 0.15 | 0.18 | 0.0993 | 0.126 | 0.0787 | 1.05 | 1.08 |  | 0.721 | 0.414 |  |  |  |  | 
24 | NCI-H1299 | 0.643 | 0.464 | 0.306 | 0.283 | 0.167 | 1.04 | 1.07 | 1.03 | 0.923 | 0.839 |  |  |  |  | 
25 | NCI-H1623 |  |  |  |  |  |  |  |  |  |  | 0.493 | 0.432 | 0.393 | 0.358 | 0.395
26 | EBC-1 | 0.341 | 0.299 | 0.271 | 0.233 | 0.201 | 0.387 | 0.352 | 0.374 | 0.363 | 0.393 |  |  |  |  | 
27 | SW 900 |  |  |  |  |  |  |  |  |  |  | 0.18 | 0.188 | 0.156 | 0.152 | 0.176
